Like-named read-outs stand apart in the source and are kept apart here.
System: OVCAR-8 cells
Test: Drug-siRNA combination screen: 346-compound anticancer library at 100 nM, CCK-8 viability
Conditions: for number of tested HDACi highly synergistic with the gene knockdown: 12 tested HDACi; for number of antagonistic/additive or highly antagonistic compounds with the gene knockdown: 346 compounds; for synergy / antagonism of drug with gene knockdowns, in words: panel of 18 siRNA knockdowns
[1] = OVCAR-8, drug 100 nM plus siRNA knockdown of each of 18 genes, distance VAB−VA×VB in SD, single gene contributes at most +5 / −5, negative = synergy, positive = antagonism

Protocol: Comparisons of drug effect were performed using data generated on the same day. A minimum of two replicates was performed with drug library screening and a minimum of three replicates was done for all other tests.
Combinatorial effects were classified using two measures of combinatorial action: 1) the coefficient of drug interaction (CDI), defined as (VAB/(VA×VB)) and 2) the distance in standard deviation (SD) of VAB−(VA×VB). […] In confirmation studies significance was determined using a Student's T-test (two-tailed, unpaired) with p<0.05 indicating significance.
To measure the effect of a gene on drug effect, comparisons were made between high expressers of each gene and the wild type cells exposed to sham reagents.
In theory, CDI<1 is indicative of synergy while CDI>1 is indicative of antagonism or additive effect in a multiplicative model.

Compound | Score (sum of observed SD values for 18 genes) [1] [SD] | further results
SLC7A11: siRNA knocking down SLC7A11; sense GGCUGAUUUAUCUUCGAUAtt (SEQ ID NO 31) (sense GGCUGAUUUAUCUUCGAUANN; antisense UAUCGAAGAUAAAUCAGCCNN; listed as RNA, chemistry not given here) |  | number of tested HDACi highly synergistic with the gene knockdown (OVCAR-8): at least six; number of antagonistic/additive or highly antagonistic compounds with the gene knockdown (OVCAR-8): Twelve or fewer
O=C(Nc1c[nH]nc1-c1nc2ccc(CN3CCOCC3)cc2[nH]1)NC1CC1 [AT9283] | 12.54 | 
CN(NC(=O)CC(=O)NN(C)C(=S)c1ccccc1)C(=S)c1ccccc1 [Elesclomol] | 11.26 | 
CC[C@@H]1C(=O)N(C)c2cnc(Nc3ccc(C(=O)NC4CCN(C)CC4)cc3OC)nc2N1C1CCCC1 [BI2536] | 12.6 | 
CC(C)C[C@H](NC(=O)CNC(=O)c1cc(Cl)ccc1Cl)B(O)O [Ixazomib] | -52.76 | 
CN[C@@H](C)C(=O)N[C@H]1CN(C(=O)CC(C)C)CC[C@H]2CC[C@@H](C(=O)NC(c3ccccc3)c3ccccc3)N2C1=O [AT406] | −38.03 | 
CNC(=O)c1cc(Oc2ccc(NC(=O)Nc3cc(C(C)(C)C)nn3-c3ccc4ncccc4c3)c(F)c2)ccn1 [Rebastinib] | 17.66 | 
Oc1cccc(-c2nc(N3CCOCC3)c3oc4ncccc4c3n2)c1 [PI-103] | -56.96 | synergy / antagonism of drug with gene knockdowns, in words (OVCAR-8, drug 100 nM): synergy to the vast majority of genes
CC(C)c1onc(-c2c(Cl)cccc2Cl)c1COc1ccc(/C=C/c2cccc(C(=O)O)c2)c(Cl)c1 [GW4064] | −12.2 | 
CC(=O)OCC(=O)[C@@]1(O)[C@H](C)C[C@H]2[C@@H]3CCC4=CC(=O)C=C[C@]4(C)[C@@]3(F)[C@@H](O)C[C@@]21C [Dexamethasone Acetate] | 6.26 | 
COc1cc(Nc2ncc3c(n2)-c2ccc(Cl)cc2C(c2c(F)cccc2OC)=NC3)ccc1C(=O)O [Alisertib] | −2.8 | 
CCOc1ccc(Cc2cc([C@@H]3O[C@H](CO)[C@@H](O)[C@H](O)[C@H]3O)ccc2Cl)cc1 [Dapagliflozin] | −15.72 | 
COc1ccc(S(=O)(=O)Nc2cccnc2Nc2ccc(O)cc2)cc1 [ABT-751] | −13.93 | 
COc1ccc(-c2ccc3c(N4CCOCC4)nc(N4C[C@@H](C)O[C@@H](C)C4)nc3n2)cc1CO [Ku-0063794] | −41.94 | 
C[C@]12C=CC(=O)C=C1CC[C@H]1[C@@H]3C[C@@H](O)[C@](O)(C(=O)CO)[C@@]3(C)C[C@H](O)[C@@]12F [Triamcinolone] | −26.66 | 
Cc1cnc(Nc2ccc(OCCN3CCCC3)cc2)nc1Nc1cccc(S(=O)(=O)NC(C)(C)C)c1 [Fedratinib] | 56.68 | 
COc1ccc(COc2cc3oc(=O)c4cc(C(C)O)ccc4c3cc2OC)cc1 (stereo not shown) [Palomid 529] | 11.53 | 
C[C@@H](Oc1cc(-n2cnc3ccc(CN4CCN(C)CC4)cc32)sc1C(N)=O)c1ccccc1C(F)(F)F [GSK461364] | 4.65 | 
COc1ccccc1OCC(O)CN1CCN(CC(=O)Nc2c(C)cccc2C)CC1 (stereo not shown) [Ranolazine] | −11.08 | 

Compound | Score (sum of observed SD values for 18 genes) [1] [SD] | further results
Nc1nc(F)nc2c1ncn2[C@@H]1O[C@H](COP(=O)(O)O)[C@@H](O)[C@@H]1O [Fludarabine Phosphate] |  | Score (sum of observed SD values for 18 genes): −11.05 SD
CN1CCN(CCOc2cc(OC3CCOCC3)c3c(Nc4c(Cl)ccc5c4OCO5)ncnc3c2)CC1 [Saracatinib] | -53.14 | 
C[C@@H]1CN(CC(=O)Nc2ccc3c(c2)Cc2cccc(-c4cc(=O)cc(N5CCOCC5)o4)c2S3)C[C@H](C)O1 [KU-60019] | −25.5 | 
COC(=O)Nc1nc2ccc(C(=O)c3cccs3)cc2[nH]1 [Nocodazole] | −7.78 | 
CNC(=O)c1cc(Oc2ccc(NC(=O)Nc3ccc(Cl)c(C(F)(F)F)c3)c(F)c2)ccn1 [Regorafinib] | 3.75 | 
O=C(NOC[C@H](O)CO)c1ccc(F)c(F)c1Nc1ccc(I)cc1F [PD0325901] | −37.42 | 
Cc1[nH]c(/C=C2\C(=O)Nc3ccc(S(=O)(=O)Cc4c(Cl)cccc4Cl)cc32)c(C)c1C(=O)N1CCC[C@@H]1CN1CCCC1 [PHA-665752] | −13.95 | 
COc1nc(C)cnc1NS(=O)(=O)c1cccnc1-c1ccc(-c2nnco2)cc1 [Zibotentan] | 10.07 | 
CC[C@H](CO)Nc1nc(NCc2ccccc2)c2ncn(C(C)C)c2n1 [Seliciclib] |  | Score (sum of observed SD values for 18 genes): −1.72 SD
Cc1ccc(S(=O)(=O)/C=C/C#N)cc1 [BAY 11-7082] | −5.7 | 
OCCn1cc(-c2cnc3nnn(Cc4ccc5ncccc5c4)c3n2)cn1 [PF-04217903] | −6.89 | 
Cl.O=C1CN2Cc3c(ccc(Cl)c3Cl)N=C2N1 [Anagrelide HCI] | −8.01 | 
CC(/C=C/C(=O)NO)=C\[C@@H](C)C(=O)c1ccc(N(C)C)cc1 [Trichostatin A] | −38.93 | synergy / antagonism of drug with gene knockdowns, in words (OVCAR-8, drug 100 nM): mostly synergistic
Cn1c(=O)n(-c2ccc(C(C)(C)C#N)cc2)c2c3cc(-c4cnc5ccccc5c4)ccc3ncc21 [BEZ235] | −35.65 | 
CCC(C)n1ncn(-c2ccc(N3CCN(c4ccc(OCC5COC(Cn6cncn6)(c6ccc(Cl)cc6Cl)O5)cc4)CC3)cc2)c1=O (stereo not shown) [Itraconazole] | −13.51 | 
COC1=C2C[C@@H](C)C[C@H](OC)[C@H](O)[C@@H](C)/C=C(\C)[C@H](OC(N)=O)[C@@H](OC)/C=C\C=C(/C)C(=O)NC(=CC1=O)C2=O [Geldanamycin] | 4.47 | 
C=CCNC1=C2C[C@@H](C)C[C@H](OC)[C@H](O)[C@@H](C)/C=C(\C)[C@H](OC(N)=O)[C@@H](OC)/C=C\C=C(/C)C(=O)NC(=CC1=O)C2=O [17-AAG] | −6.69 | 
Cc1cc(Nc2cc(N3CCN(C)CC3)nc(/C=C/c3ccccc3)n2)n[nH]1 [ENMD-2076] | −47.04 | synergy / antagonism of drug with gene knockdowns, in words (OVCAR-8, drug 100 nM): significant synergy
C=CC(=O)N1CCC[C@@H](n2nc(-c3ccc(Oc4ccccc4)cc3)c3c(N)ncnc32)C1 [Ibrutinib] | -58.62 | 

Compound | Score (sum of observed SD values for 18 genes) [1] [SD] | further results
COc1cc(OC)c(/C=C/S(=O)(=O)Cc2ccc(OC)c(NCC(=O)O)c2)c(OC)c1 [Rigosertib] | 6.43 | 
CC[C@@H](C(=O)[C@@H](C)[C@@H](O)[C@H](C)[C@@H]1O[C@@H]([C@@H](CC)C(=O)O)CC[C@@H]1C)[C@H]1O[C@]2(C=C[C@@H](O)[C@]3(CC[C@@](C)([C@H]4CC[C@](O)(CC)[C@H](C)O4)O3)O2)[C@H](C)C[C@@H]1C [Salinomycin] | −21.61 | 
C=CCn1c(=O)c2cnc(Nc3ccc(N4CCN(C)CC4)cc3)nc2n1-c1cccc(C(C)(C)O)n1 [MK-1775] | -64.04 | synergy / antagonism of drug with gene knockdowns, in words (OVCAR-8, drug 100 nM): Frequently among the top synergizing pairs; number of genes (of 18) with high synergy with the drug (OVCAR-8, drug 100 nM, siRNA knockdown): 13 genes
O=C(Nc1ccc(OC(F)(F)F)cc1)c1sccc1NCc1ccnc2ccccc12 [OSI-930] | −0.3 | 
COc1cc2nccc(Oc3ccc(NC(=O)Nc4cc(C)on4)c(Cl)c3)c2cc1OC [Tivozanib] | −16.34 | 
O=C(O)CC[C@H]1CC[C@@](c2cc(F)ccc2F)(S(=O)(=O)c2ccc(Cl)cc2)CC1 [MK-0752] | −34.92 | 
Cc1csc(-c2nnc(Nc3ccc(Oc4ncccc4-c4ccnc(N)n4)cc3)c3ccccc23)c1 [AMG 900] | 11.64 | 
C/C(=C\C(=O)Nc1ccccc1C(=O)O)c1ccc2ccccc2c1 [BIBR 1532] | −16.4 | 
COc1cc2nccc(Oc3ccc(NC(=O)NC4CC4)c(Cl)c3)c2cc1C(N)=O [Lenvatinib] | −27.5 | 
C[C@]12CC[C@@H]3c4ccc(O)cc4CC[C@H]3[C@@H]1CC[C@@H]2O [Estradiol] | −26.58 | 
O=C(/C=C/c1cccnc1)NCCCCC1CCN(C(=O)c2ccccc2)CC1 [APO866] | 7.8 | 
CN1CC[C@H](c2c(O)cc(O)c3c(=O)cc(-c4ccccc4Cl)oc23)[C@H](O)C1 [Flavopiridol] | −23.63 | 
C[C@H]1C[C@H]2[C@@H]3CCC4=CC(=O)C=C[C@]4(C)[C@H]3C(=O)C[C@]2(C)[C@@]1(O)C(=O)CO [Meprednisone] | −25.82 | 
CC(C)n1c(/C=C/C(O)CC(O)CC(=O)O)c(-c2ccc(F)cc2)c2ccccc21 (stereo not shown) [Fluvastatin] | −20.51 | 
COc1cc2c(cc1O)CC[C@@H]1[C@@H]2CC[C@]2(C)[C@@H](O)CC[C@@H]12 [2-Methoxyestradiol] | −31.84 | 
CC(C)C(=O)Nc1ccc([N+](=O)[O-])c(C(F)(F)F)c1 [Flutamide] | 3.96 | 
AXL: siRNA knocking down AXL; sense CAGCGAGAUUUAUGACUAUtt (SEQ ID NO 15) (sense CAGCGAGAUUUAUGACUAUNN; antisense AUAGUCAUAAAUCUCGCUGNN; listed as RNA, chemistry not given here) |  | number of tested HDACi highly synergistic with the gene knockdown (OVCAR-8): at least six; number of antagonistic/additive or highly antagonistic compounds with the gene knockdown (OVCAR-8): Twelve or fewer
CC(C)(C)Cn1c(N)nc2ccc(-c3[nH]c(C(C)(C)C)nc3-c3ccc(F)cc3)nc21 [LY2228820] | −30.98 | 
C[C@H]1COC2(CCN(c3nc(=O)c4cc(C(F)(F)F)cc([N+](=O)[O-])c4s3)CC2)O1 [BTZ043] | −13.06 | 

From patent US11946094B2, “Combination therapies and methods of use thereof” (Augusta University Research Institute, Inc., priority 2017, dated 2024)
